ChEMBL document CHEMBL1201861, “Genomics of Drug Sensitity in Cancer screening data, Wellcome Trust Sanger Institute”

Experiments:
Experiment in all cases: cells
D-502MG = type: functional, cell-based, Homo sapiens; conditions: Homo sapiens, D-502MG
Description: SANGER: Inhibition of human D-502MG cell growth in a cell viability assay.

DEL = type: functional, cell-based, Homo sapiens; conditions: Homo sapiens, DEL;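 note: growth inhibition of the human DEL cell line, read out with a cell viability assay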
Description: SANGER: Inhibition of human DEL cell growth in a cell viability assay.

DMS-114 = type: functional, cell-based, Homo sapiens; conditions: Homo sapiens, DMS-114
DOHH-2 = type: functional, cell-based, Homo sapiens; conditions: Homo sapiens, DOHH-2;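 note: growth inhibition of human DOHH-2 cells, read out with a cell viability assay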
Description: SANGER: Inhibition of human DOHH-2 cell growth in a cell viability assay.

EM-2 = type: functional, cell-based, Homo sapiens; conditions: Homo sapiens, EM-2;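 note: growth inhibition of EM-2 cells, read out with a cell viability assay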
Description: SANGER: Inhibition of human EM-2 cell growth in a cell viability assay.

ES3 = type: functional, cell-based, Homo sapiens; conditions: Homo sapiens, ES3;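 note: growth inhibition of ES3 cells, read out with a cell viability assay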
Description: SANGER: Inhibition of human ES3 cell growth in a cell viability assay.

ETK-1 = type: functional, cell-based, Homo sapiens; conditions: Homo sapiens, ETK-1;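 note: growth inhibition of human ETK-1 cells, read out with a cell viability assay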
Description: SANGER: Inhibition of human ETK-1 cell growth in a cell viability assay.

EW-11 = type: functional, cell-based, Homo sapiens; conditions: Homo sapiens, EW-11;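 note: growth inhibition of human EW-11 cells, measured with a cell viability assay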
Description: SANGER: Inhibition of human EW-11 cell growth in a cell viability assay.

EW-13 = type: functional, cell-based, Homo sapiens; conditions: Homo sapiens, EW-13;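 note: growth inhibition of EW-13 cells, read out with a cell viability assay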
Description: SANGER: Inhibition of human EW-13 cell growth in a cell viability assay.

EW-3 = type: functional, cell-based, Homo sapiens; conditions: Homo sapiens, EW-3;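 note: cell viability assay read-out, IC50 reflects inhibition of growth of the EW-3 cells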
Description: SANGER: Inhibition of human EW-3 cell growth in a cell viability assay.

HCC 2998 = type: functional, cell-based, Homo sapiens; conditions: Homo sapiens, HCC 2998;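 note: growth inhibition of human HCC2998 cells, measured with a cell viability read-out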
Description: SANGER: Inhibition of human HCC2998 cell growth in a cell viability assay.

HCE-T = type: functional, cell-based, Homo sapiens; conditions: Homo sapiens, HCE-T;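 note: cell viability assay read-out, reporting inhibition of HCE-T cell growth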
Description: SANGER: Inhibition of human HCE-T cell growth in a cell viability assay.

HH = type: functional, cell-based, Homo sapiens; conditions: Homo sapiens, HH
Description: SANGER: Inhibition of human HH cell growth in a cell viability assay.

IST-SL1 = type: functional, cell-based, Homo sapiens; conditions: Homo sapiens, IST-SL1;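 note: growth inhibition of human IST-SL1 cells, read out with a cell viability assay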
Description: SANGER: Inhibition of human IST-SL1 cell growth in a cell viability assay.

JVM-2 = type: functional, cell-based, Homo sapiens; conditions: Homo sapiens, JVM-2;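 note: growth inhibition of JVM-2 cells determined by a cell viability assay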
Description: SANGER: Inhibition of human JVM-2 cell growth in a cell viability assay.

JVM-3 = type: functional, cell-based, Homo sapiens; conditions: Homo sapiens, JVM-3;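 note: growth inhibition of human JVM-3 cells, read out with a cell viability assay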
Description: SANGER: Inhibition of human JVM-3 cell growth in a cell viability assay.

K5 = type: functional, cell-based, Homo sapiens; conditions: Homo sapiens, K5
Description: SANGER: Inhibition of human K5 cell growth in a cell viability assay.

KALS-1 = type: functional, cell-based, Homo sapiens; conditions: Homo sapiens, KALS-1;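 note: growth inhibition of KALS-1 cells, determined with a cell viability assay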
Description: SANGER: Inhibition of human KALS-1 cell growth in a cell viability assay.

KARPAS-45 = type: functional, cell-based, Homo sapiens; conditions: Homo sapiens, KARPAS-45;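 note: inhibition of cell line growth, read out through a viability assay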
Description: SANGER: Inhibition of human KARPAS-45 cell growth in a cell viability assay.

KGN = type: functional, cell-based, Homo sapiens; conditions: Homo sapiens, KGN;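 note: growth inhibition of KGN cells, read out with a cell viability assay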
Description: SANGER: Inhibition of human KGN cell growth in a cell viability assay.

KNS-42 = type: functional, cell-based, Homo sapiens; conditions: Homo sapiens, KNS-42;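 note: growth inhibition of KNS-42 cells, read out with a cell viability assay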
Description: SANGER: Inhibition of human KNS-42 cell growth in a cell viability assay.

LAMA-84 = type: functional, cell-based, Homo sapiens; conditions: Homo sapiens, LAMA-84;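 note: growth inhibition of LAMA-84 cells, read out with a cell viability assay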
Description: SANGER: Inhibition of human LAMA-84 cell growth in a cell viability assay.

LB2518-MEL = type: functional, cell-based, Homo sapiens; conditions: Homo sapiens, LB2518-MEL;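 note: growth inhibition of human LB2518-MEL cells, measured with a cell viability assay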
Description: SANGER: Inhibition of human LB2518-MEL cell growth in a cell viability assay.

LB771-HNC = type: functional, cell-based, Homo sapiens; conditions: Homo sapiens, LB771-HNC;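 note: growth inhibition of LB771-HNC human cells, read out with a cell viability assay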
Description: SANGER: Inhibition of human LB771-HNC cell growth in a cell viability assay.

LB831-BLC = type: functional, cell-based, Homo sapiens; conditions: Homo sapiens, LB831-BLC;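 note: growth inhibition of LB831-BLC cells, read out with a cell viability assay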
Description: SANGER: Inhibition of human LB831-BLC cell growth in a cell viability assay.

LS-411N = type: functional, cell-based, Homo sapiens; conditions: Homo sapiens, LS-411N
LS-513 = type: functional, cell-based, Homo sapiens; conditions: Homo sapiens, LS-513
Description: SANGER: Inhibition of human LS-513 cell growth in a cell viability assay.

MFM-223 = type: functional, cell-based, Homo sapiens; conditions: Homo sapiens, MFM-223
Description: SANGER: Inhibition of human MFM-223 cell growth in a cell viability assay.

MN-60 = type: functional, cell-based, Homo sapiens; conditions: Homo sapiens, MN-60;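 note: growth inhibition of the MN-60 cell line, determined with a cell viability assay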
Description: SANGER: Inhibition of human MN-60 cell growth in a cell viability assay.

MS-1 = type: functional, cell-based, Homo sapiens; conditions: Homo sapiens, MS-1
Description: SANGER: Inhibition of human MS-1 cell growth in a cell viability assay.

MV4-11 = type: functional, cell-based, Homo sapiens, MV-4-11; conditions: Homo sapiens, MV4-11;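 note: cell viability readout measuring growth inhibition of human MV-4-11 cells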
Description: SANGER: Inhibition of human MV-4-11 cell growth in a cell viability assay.

NCI-H1355 = type: functional, cell-based, Homo sapiens; conditions: Homo sapiens, NCI-H1355;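 note: growth inhibition of human NCI-H1355 cells, read out by a cell viability assay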
Description: SANGER: Inhibition of human NCI-H1355 cell growth in a cell viability assay.

NCI-H526 = type: functional, cell-based, Homo sapiens; conditions: Homo sapiens, NCI-H526;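 note: growth inhibition of the human NCI-H526 cell line, measured by a cell viability assay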
Description: SANGER: Inhibition of human NCI-H526 cell growth in a cell viability assay.

NCI-N87 = type: functional, cell-based, Homo sapiens; conditions: Homo sapiens, NCI-N87;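 note: growth inhibition of human NCI-N87 cells, read out with a cell viability assay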
Description: SANGER: Inhibition of human NCI-N87 cell growth in a cell viability assay.

NMC-G1 = type: functional, cell-based, Homo sapiens; conditions: Homo sapiens, NMC-G1;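 note: growth inhibition of the NMC-G1 cell line, measured with a cell viability read-out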
Description: SANGER: Inhibition of human NMC-G1 cell growth in a cell viability assay.

OMC-1 = type: functional, cell-based, Homo sapiens; conditions: Homo sapiens, OMC-1;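 note: growth inhibition of the OMC-1 cell line, measured by a cell viability assay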
Description: SANGER: Inhibition of human OMC-1 cell growth in a cell viability assay.

P30-OHK = type: functional, cell-based, Homo sapiens; conditions: Homo sapiens, P30-OHK;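 note: growth inhibition of the P30-OHK cell line, read out with a cell viability assay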
Description: SANGER: Inhibition of human P30-OHK cell growth in a cell viability assay.

RH-1 = type: functional, cell-based, Homo sapiens; conditions: Homo sapiens, RH-1;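 note: growth inhibition of human RH-1 cells, read out with a cell viability assay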
Description: SANGER: Inhibition of human RH-1 cell growth in a cell viability assay.

RPMI-8226 = type: functional, cell-based, Homo sapiens; conditions: Homo sapiens, RPMI-8226
Description: SANGER: Inhibition of human RPMI-8226 cell growth in a cell viability assay.

SH-4 = type: functional, cell-based, Homo sapiens; conditions: Homo sapiens, SH-4;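 note: growth inhibition of SH-4 cells, read out with a cell viability assay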
Description: SANGER: Inhibition of human SH-4 cell growth in a cell viability assay.

SK-N-DZ = type: functional, cell-based, Homo sapiens; conditions: Homo sapiens, SK-N-DZ;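 note: growth inhibition of the cancer cell line, read out through a viability assay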
Description: SANGER: Inhibition of human SK-N-DZ cell growth in a cell viability assay.

SK-NEP-1 = type: functional, cell-based, Homo sapiens; conditions: Homo sapiens, SK-NEP-1;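 note: growth inhibition of human SK-NEP-1 cells, read out by a cell viability assay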
Description: SANGER: Inhibition of human SK-NEP-1 cell growth in a cell viability assay.

SNU-C2B = type: functional, cell-based, Homo sapiens; conditions: Homo sapiens, SNU-C2B;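 note: cell viability readout used to measure compound-driven suppression of SNU-C2B cell proliferation, IC50 marking half-maximal growth inhibition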
Description: SANGER: Inhibition of human SNU-C2B cell growth in a cell viability assay.

ALL-PO = type: functional, cell-based, Homo sapiens; conditions: Homo sapiens, ALL-PO;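 note: growth inhibition of ALL-PO cells, read out by a cell viability assay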
Description: SANGER: Inhibition of human ALL-PO cell growth in a cell viability assay.

ATN-1 = type: functional, cell-based, Homo sapiens; conditions: Homo sapiens, ATN-1;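 note: growth inhibition of human ATN-1 cells, read out with a cell viability assay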
Description: SANGER: Inhibition of human ATN-1 cell growth in a cell viability assay.

BV-173 = type: functional, cell-based, Homo sapiens; conditions: Homo sapiens, BV-173
Description: SANGER: Inhibition of human BV-173 cell growth in a cell viability assay.

C2BBe1 = type: functional, cell-based, Homo sapiens; conditions: Homo sapiens, C2BBe1;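 note: growth inhibition of C2BBe1 cells, read out through a viability assay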
Description: SANGER: Inhibition of human C2BBe1 cell growth in a cell viability assay.

CAS-1 = type: functional, cell-based, Homo sapiens; conditions: Homo sapiens, CAS-1;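 note: growth inhibition of CAS-1 cells, measured with a cell viability assay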
Description: SANGER: Inhibition of human CAS-1 cell growth in a cell viability assay.

Work on `Cc1cc([N+](=O)[O-])ccc1NS(=O)(=O)c1cc(Cl)ccc1Cl` yielded an IC50 (D-502MG) of 0.607 µM, an IC50 (DEL) of 6.68 µM and an IC50 (DMS-114) greater than 32 µM. It also gave an IC50 (DOHH-2) of 17.2 µM, an IC50 (EM-2) of 16.3 µM and an IC50 (ES3) of 7.72 µM. For the same molecule, the IC50 (ETK-1) was 6.35 µM, the IC50 (EW-11) was greater than 32 µM and the IC50 (EW-13) was 6.04 µM. The IC50 (EW-3) was greater than 32 µM, the IC50 (HCC 2998) was 3.15 µM and the IC50 (HCE-T) was 9.59 µM. The IC50 (HH) was 15.2 µM, the IC50 (IST-SL1) was 24.4 µM and the IC50 (JVM-2) was greater than 32 µM. The IC50 (JVM-3) was greater than 32 µM, the IC50 (K5) was 6.43 µM and the IC50 (KALS-1) was 8.54 µM. The IC50 (KARPAS-45) was 4.51 µM, the IC50 (KGN) was 4.2 µM and the IC50 (KNS-42) was 12.7 µM. The IC50 (LAMA-84) was 6.09 µM, the IC50 (LB2518-MEL) was 1.16 µM and the IC50 (LB771-HNC) was 2.24 µM. It also gave an IC50 (LB831-BLC) of 2.1 µM, an IC50 (LS-411N) of 4.52 µM and an IC50 (LS-513) of 14.5 µM. It also gave an IC50 (MFM-223) greater than 32 µM, an IC50 (MN-60) of 27 µM and an IC50 (MS-1) of 16.4 µM. For the same molecule, the IC50 (MV4-11) was 5.23 µM, the IC50 (NCI-H1355) was 2.93 µM and the IC50 (NCI-H526) was 28.2 µM. For the same molecule, the IC50 (NCI-N87) was 7.25 µM, the IC50 (NMC-G1) was 9.89 µM and the IC50 (OMC-1) was 8.57 µM. For the same molecule, the IC50 (P30-OHK) was greater than 32 µM, the IC50 (RH-1) was 10.2 µM and the IC50 (RPMI-8226) was 6.56 µM. The IC50 (SH-4) was 1.38 µM, the IC50 (SK-N-DZ) was greater than 32 µM and the IC50 (SK-NEP-1) was 19.2 µM. It also gave an IC50 (SNU-C2B) of 4.29 µM, an IC50 (ALL-PO) of 2.34 µM and an IC50 (ATN-1) greater than 32 µM. It also gave an IC50 (BV-173) greater than 32 µM, an IC50 (C2BBe1) of 25.4 µM and an IC50 (CAS-1) of 8.88 µM.

Work on `Oc1ccc2ccccc2c1SSc1c(O)ccc2ccccc12` yielded an IC50 (D-502MG) greater than 32 µM, an IC50 (DEL) of 9.64 µM and an IC50 (DMS-114) greater than 32 µM. It also gave an IC50 (DOHH-2) greater than 32 µM, an IC50 (EM-2) greater than 32 µM and an IC50 (ES3) of 11.4 µM. It also gave an IC50 (ETK-1) greater than 32 µM, an IC50 (EW-11) greater than 32 µM and an IC50 (EW-13) of 4.2 µM. The IC50 (EW-3) was 29.5 µM, the IC50 (HCC 2998) was greater than 32 µM and the IC50 (HCE-T) was greater than 32 µM. For the same molecule, the IC50 (HH) was 10.8 µM, the IC50 (IST-SL1) was greater than 32 µM and the IC50 (JVM-2) was greater than 32 µM. For the same molecule, the IC50 (JVM-3) was greater than 32 µM, the IC50 (K5) was greater than 32 µM and the IC50 (KALS-1) was greater than 32 µM. The IC50 (KARPAS-45) was 12.8 µM, the IC50 (KGN) was 12.4 µM and the IC50 (KNS-42) was greater than 32 µM. For the same molecule, the IC50 (LAMA-84) was greater than 32 µM, the IC50 (LB2518-MEL) was greater than 32 µM and the IC50 (LB771-HNC) was greater than 32 µM. It also gave an IC50 (LB831-BLC) greater than 32 µM, an IC50 (LS-411N) greater than 32 µM and an IC50 (LS-513) greater than 32 µM. The IC50 (MFM-223) was greater than 32 µM, the IC50 (MN-60) was greater than 32 µM and the IC50 (MS-1) was greater than 32 µM. It also gave an IC50 (MV4-11) of 9.16 µM, an IC50 (NCI-H1355) greater than 32 µM and an IC50 (NCI-H526) greater than 32 µM. For the same molecule, the IC50 (NCI-N87) was greater than 32 µM, the IC50 (NMC-G1) was greater than 32 µM and the IC50 (OMC-1) was greater than 32 µM. It also gave an IC50 (P30-OHK) of 9.87 µM, an IC50 (RH-1) of 27.8 µM and an IC50 (RPMI-8226) greater than 32 µM. For the same molecule, the IC50 (SH-4) was greater than 32 µM, the IC50 (SK-N-DZ) was 9.2 µM and the IC50 (SK-NEP-1) was greater than 32 µM. The IC50 (SNU-C2B) was greater than 32 µM, the IC50 (ALL-PO) was 13.9 µM and the IC50 (ATN-1) was greater than 32 µM. For the same molecule, the IC50 (BV-173) was greater than 32 µM, the IC50 (C2BBe1) was greater than 32 µM and the IC50 (CAS-1) was greater than 32 µM.
